# Values joined by “and” are separate entries in the source; they are usually repeats but may differ in a detail not shown here. Equal entries are not always repeated.
# Tests used:
# E. coli AG100A = experiment: EtBr efflux by real-time fluorometry; settings: 20 µM
# Protocol: Control tubes with only cells and cells with and without 0.4% glucose were included. The fluorescence was measured in a Rotor-Gene 3000 and the data was acquired every 30 s for 30 min at 37 °C. The efflux activity was quantified by comparing the fluorescence data obtained under conditions that promote efflux (presence of glucose and absence of efflux inhibitor) with the data from the control in which the bacteria are under conditions of no efflux (presence of an inhibitor and no energy source).
# [1] = Cytotoxicity, AlamarBlue method; format: cell-based, human; settings: human
# Protocol: (§1) The blood was collected from healthy donors and the peripheral blood mononuclear cells were isolated by Ficoll-Paque Plus (GE Healthcare, Freiburg, Germany) density gradient centrifugation as previously described ([Machado et al., 2016]). […] Fresh medium was added at day 4 post isolation. The effect of the compounds on human monocyte-derived macrophages was evaluated using the AlamarBlue method (Molecular Probes, Life Technologies) ([O’Brien et al., 2000]), and by measuring the release of the lactate dehydrogenase (LDH) into the culture supernatants using the Pierce LDH Cytotoxicity Assay (ThermoFisher Scientific, Waltham, MA, USA) ([Chan, Moriwaki & Rosa, 2013]) according to the manufacturer’s instructions. Briefly, 5 × 10^4 cells were seeded in 96-well microplates treated with the compounds, and incubated at 37 °C with 5% CO2. After 72 h of treatment, the cell viability was assessed. For the AlamarBlue method, the dye was added to each well to a final concentration of 10% and incubated overnight at 37 °C and 5% CO2. The fluorescence was measured with a 540/35 excitation filter and a 590/20 emission filter in a Synergy HT multi-mode microplate reader. The release of LDH from damaged cells into culture supernatants, as an indicator of cytotoxicity, was measured in serum-free medium. Here the amount of enzyme activity correlates to the number of damaged cells. The specific lysis was calculated as follows: (treated cells—spontaneous LDH release)/ (maximum LDH release—spontaneous LDH release) ×100.
# [2] = test system: human monocyte-derived macrophages; experiment: Cytotoxicity, AlamarBlue method; format: cell-based; settings: human, 3 days
# Protocol: as §1
# [3] = test system: E. coli K-12 AG100 (wild-type); experiment: MIC, broth microdilution; format: cell-based; settings: Escherichia coli; E. coli AG100 wild-type; read-out: MIC
# [4] = test system: human monocyte-derived macrophages; experiment: Cytotoxicity, LDH release; format: cell-based; settings: human, 3 days
# Protocol: as §1
structure (smiles),measurement,setting,value
"CN(C)CCCN1c2ccccc2Sc2ccc(Cl)cc21 [CPZ, chlorpromazine]",EtBr fluorescence (Channel Cycling A.530/585hp),"E. coli AG100A; cycle 1, + glucose",3.827
same,EtBr fluorescence (Channel Cycling A.530/585hp),"E. coli AG100A; cycle 1, without glucose",4.231
same,EtBr fluorescence (Channel Cycling A.530/585hp),"E. coli AG100A; cycle 2, + glucose",3.676
same,EtBr fluorescence (Channel Cycling A.530/585hp),"E. coli AG100A; cycle 2, without glucose",4.204
same,EtBr fluorescence (Channel Cycling A.530/585hp),"E. coli AG100A; cycle 3, + glucose",3.648
same,EtBr fluorescence (Channel Cycling A.530/585hp),"E. coli AG100A; cycle 3, without glucose",4.237
same,EtBr fluorescence (Channel Cycling A.530/585hp),"E. coli AG100A; cycle 4, without glucose",4.314
same,EtBr fluorescence (Channel Cycling A.530/585hp),"E. coli AG100A; cycle 5, without glucose",4.267
same,EtBr fluorescence (Channel Cycling A.530/585hp),"E. coli AG100A; cycle 6, without glucose",4.36
same,EtBr fluorescence (Channel Cycling A.530/585hp),"E. coli AG100A; cycle 7, without glucose",4.4
same,EtBr fluorescence (Channel Cycling A.530/585hp),"E. coli AG100A; cycle 8, without glucose",4.486
same,EtBr fluorescence (Channel Cycling A.530/585hp),"E. coli AG100A; cycle 9, + glucose",3.606
same,EtBr fluorescence (Channel Cycling A.530/585hp),"E. coli AG100A; cycle 9, without glucose",4.551
same,EtBr fluorescence (Channel Cycling A.530/585hp),"E. coli AG100A; cycle 10, + glucose",3.712
same,EtBr fluorescence (Channel Cycling A.530/585hp),"E. coli AG100A; cycle 10, without glucose",4.522
same,EtBr fluorescence (Channel Cycling A.530/585hp),"E. coli AG100A; cycle 11, + glucose",3.667
same,EtBr fluorescence (Channel Cycling A.530/585hp),"E. coli AG100A; cycle 11, without glucose",4.614
same,EtBr fluorescence (Channel Cycling A.530/585hp),"E. coli AG100A; cycle 12, + glucose",3.687
same,EtBr fluorescence (Channel Cycling A.530/585hp),"E. coli AG100A; cycle 12, without glucose",4.652
same,EtBr fluorescence (Channel Cycling A.530/585hp),"E. coli AG100A; cycle 13, + glucose",3.761
same,EtBr fluorescence (Channel Cycling A.530/585hp),"E. coli AG100A; cycle 13, without glucose",4.775
same,EtBr fluorescence (Channel Cycling A.530/585hp),"E. coli AG100A; cycle 14, + glucose",3.711
same,EtBr fluorescence (Channel Cycling A.530/585hp),"E. coli AG100A; cycle 14, without glucose",4.879
same,EtBr fluorescence (Channel Cycling A.530/585hp),"E. coli AG100A; cycle 15, + glucose",3.685
same,EtBr fluorescence (Channel Cycling A.530/585hp),"E. coli AG100A; cycle 15, without glucose",4.89
same,EtBr fluorescence (Channel Cycling A.530/585hp),"E. coli AG100A; cycle 16, + glucose",3.729
same,EtBr fluorescence (Channel Cycling A.530/585hp),"E. coli AG100A; cycle 16, without glucose",4.933
same,EtBr fluorescence (Channel Cycling A.530/585hp),"E. coli AG100A; cycle 17, + glucose",3.749
same,EtBr fluorescence (Channel Cycling A.530/585hp),"E. coli AG100A; cycle 17, without glucose",4.963
same,EtBr fluorescence (Channel Cycling A.530/585hp),"E. coli AG100A; cycle 18, + glucose",3.817
same,EtBr fluorescence (Channel Cycling A.530/585hp),"E. coli AG100A; cycle 18, without glucose",5.023
same,EtBr fluorescence (Channel Cycling A.530/585hp),"E. coli AG100A; cycle 19, + glucose",3.768
same,EtBr fluorescence (Channel Cycling A.530/585hp),"E. coli AG100A; cycle 19, without glucose",5.067
same,EtBr fluorescence (Channel Cycling A.530/585hp),"E. coli AG100A; cycle 20, + glucose",3.821
same,EtBr fluorescence (Channel Cycling A.530/585hp),"E. coli AG100A; cycle 20, without glucose",5.072
same,EtBr fluorescence (Channel Cycling A.530/585hp),"E. coli AG100A; cycle 21, + glucose",3.796
same,EtBr fluorescence (Channel Cycling A.530/585hp),"E. coli AG100A; cycle 21, without glucose",5.224
same,EtBr fluorescence (Channel Cycling A.530/585hp),"E. coli AG100A; cycle 22, + glucose",3.843
same,EtBr fluorescence (Channel Cycling A.530/585hp),"E. coli AG100A; cycle 22, without glucose",5.19
same,EtBr fluorescence (Channel Cycling A.530/585hp),"E. coli AG100A; cycle 23, + glucose",3.825
same,EtBr fluorescence (Channel Cycling A.530/585hp),"E. coli AG100A; cycle 23, without glucose",5.293
same,EtBr fluorescence (Channel Cycling A.530/585hp),"E. coli AG100A; cycle 24, + glucose",3.796
same,EtBr fluorescence (Channel Cycling A.530/585hp),"E. coli AG100A; cycle 24, without glucose",5.381
same,EtBr fluorescence (Channel Cycling A.530/585hp),"E. coli AG100A; cycle 25, + glucose",3.807
same,EtBr fluorescence (Channel Cycling A.530/585hp),"E. coli AG100A; cycle 25, without glucose",5.403
same,EtBr fluorescence (Channel Cycling A.530/585hp),"E. coli AG100A; cycle 26, + glucose",3.836
same,EtBr fluorescence (Channel Cycling A.530/585hp),"E. coli AG100A; cycle 26, without glucose",5.546
same,EtBr fluorescence (Channel Cycling A.530/585hp),"E. coli AG100A; cycle 27, + glucose",3.8908
same,EtBr fluorescence (Channel Cycling A.530/585hp),"E. coli AG100A; cycle 27, without glucose",5.462
same,EtBr fluorescence (Channel Cycling A.530/585hp),"E. coli AG100A; cycle 28, + glucose",3.846
same,EtBr fluorescence (Channel Cycling A.530/585hp),"E. coli AG100A; cycle 28, without glucose",5.551
same,EtBr fluorescence (Channel Cycling A.530/585hp),"E. coli AG100A; cycle 29, + glucose",3.901
same,EtBr fluorescence (Channel Cycling A.530/585hp),"E. coli AG100A; cycle 29, without glucose",5.7035
same,EtBr fluorescence (Channel Cycling A.530/585hp),"E. coli AG100A; cycle 30, + glucose",3.8738
same,EtBr fluorescence (Channel Cycling A.530/585hp),"E. coli AG100A; cycle 30, without glucose",5.804
same,EtBr fluorescence (Channel Cycling A.530/585hp),"E. coli AG100A; cycle 31, + glucose",3.964
same,EtBr fluorescence (Channel Cycling A.530/585hp),"E. coli AG100A; cycle 31, without glucose",5.758
same,EtBr fluorescence (Channel Cycling A.530/585hp),"E. coli AG100A; cycle 32, + glucose",3.895
same,EtBr fluorescence (Channel Cycling A.530/585hp),"E. coli AG100A; cycle 32, without glucose",5.843
same,EtBr fluorescence (Channel Cycling A.530/585hp),"E. coli AG100A; cycle 33, + glucose",3.921
same,EtBr fluorescence (Channel Cycling A.530/585hp),"E. coli AG100A; cycle 33, without glucose",5.872
same,EtBr fluorescence (Channel Cycling A.530/585hp),"E. coli AG100A; cycle 34, + glucose",3.877
same,EtBr fluorescence (Channel Cycling A.530/585hp),"E. coli AG100A; cycle 34, without glucose",5.974
same,EtBr fluorescence (Channel Cycling A.530/585hp),"E. coli AG100A; cycle 35, + glucose",3.838
same,EtBr fluorescence (Channel Cycling A.530/585hp),"E. coli AG100A; cycle 35, without glucose",6.003
same,EtBr fluorescence (Channel Cycling A.530/585hp),"E. coli AG100A; cycle 36, + glucose",3.873
same,EtBr fluorescence (Channel Cycling A.530/585hp),"E. coli AG100A; cycle 36, without glucose",6.052
same,EtBr fluorescence (Channel Cycling A.530/585hp),"E. coli AG100A; cycle 37, + glucose",3.865
same,EtBr fluorescence (Channel Cycling A.530/585hp),"E. coli AG100A; cycle 37, without glucose",6.051
same,EtBr fluorescence (Channel Cycling A.530/585hp),"E. coli AG100A; cycle 38, + glucose",3.927
same,EtBr fluorescence (Channel Cycling A.530/585hp),"E. coli AG100A; cycle 38, without glucose",6.151
same,EtBr fluorescence (Channel Cycling A.530/585hp),"E. coli AG100A; cycle 39, + glucose",3.914
same,EtBr fluorescence (Channel Cycling A.530/585hp),"E. coli AG100A; cycle 39, without glucose",6.208
same,EtBr fluorescence (Channel Cycling A.530/585hp),"E. coli AG100A; cycle 40, + glucose",4.038
same,EtBr fluorescence (Channel Cycling A.530/585hp),"E. coli AG100A; cycle 40, without glucose",6.311
same,EtBr fluorescence (Channel Cycling A.530/585hp),"E. coli AG100A; cycle 41, + glucose",3.929
same,EtBr fluorescence (Channel Cycling A.530/585hp),"E. coli AG100A; cycle 41, without glucose",6.369
same,EtBr fluorescence (Channel Cycling A.530/585hp),"E. coli AG100A; cycle 42, + glucose",3.925
same,EtBr fluorescence (Channel Cycling A.530/585hp),"E. coli AG100A; cycle 42, without glucose",6.396
same,EtBr fluorescence (Channel Cycling A.530/585hp),"E. coli AG100A; cycle 43, + glucose",3.906
same,EtBr fluorescence (Channel Cycling A.530/585hp),"E. coli AG100A; cycle 43, without glucose",6.421
same,EtBr fluorescence (Channel Cycling A.530/585hp),"E. coli AG100A; cycle 44, + glucose",3.836
same,EtBr fluorescence (Channel Cycling A.530/585hp),"E. coli AG100A; cycle 44, without glucose",6.524
same,EtBr fluorescence (Channel Cycling A.530/585hp),"E. coli AG100A; cycle 45, without glucose",6.6507
same,EtBr fluorescence (Channel Cycling A.530/585hp),"E. coli AG100A; cycle 46, without glucose",6.69
same,EtBr fluorescence (Channel Cycling A.530/585hp),"E. coli AG100A; cycle 47, without glucose",6.633
same,EtBr fluorescence (Channel Cycling A.530/585hp),"E. coli AG100A; cycle 48, without glucose",6.748
same,EtBr fluorescence (Channel Cycling A.530/585hp),"E. coli AG100A; cycle 49, without glucose",6.869
same,EtBr fluorescence (Channel Cycling A.530/585hp),"E. coli AG100A; cycle 50, without glucose",6.908
same,EtBr fluorescence (Channel Cycling A.530/585hp),"E. coli AG100A; cycle 51, without glucose",6.927
same,EtBr fluorescence (Channel Cycling A.530/585hp),"E. coli AG100A; cycle 52, without glucose",6.871
same,EtBr fluorescence (Channel Cycling A.530/585hp),"E. coli AG100A; cycle 53, without glucose",6.976
same,EtBr fluorescence (Channel Cycling A.530/585hp),"E. coli AG100A; cycle 54, without glucose",6.9692
same,EtBr fluorescence (Channel Cycling A.530/585hp),"E. coli AG100A; cycle 55, without glucose",7.074
same,EtBr fluorescence (Channel Cycling A.530/585hp),"E. coli AG100A; cycle 56, without glucose",7.021
same,EtBr fluorescence (Channel Cycling A.530/585hp),"E. coli AG100A; cycle 57, without glucose",7.172
same,EtBr fluorescence (Channel Cycling A.530/585hp),"E. coli AG100A; cycle 58, without glucose",7.396
same,EtBr fluorescence (Channel Cycling A.530/585hp),"E. coli AG100A; cycle 59, without glucose",7.291
same,EtBr fluorescence (Channel Cycling A.530/585hp),"E. coli AG100A; cycle 60, without glucose",7.378
same,EtBr fluorescence (Channel Cycling A.530/585hp),"E. coli AG100A; cycle 61, without glucose",7.37
same,CC50 at 3 days,[1],22.2 µM
same,CC90 at 3 days,[1],37 µM
same,CC10,[2],13.36 µM
same,MIC,[3],120 µg/mL and 338 µM
same,LDH release,[4]; 1.25 µM,0.95%
same,LDH release,[4]; 20 µM,24%

# Reference: paper PMC5433425 (PeerJ, 2017)
